PubChem BioAssay AID1159564 (GlaxoSmithKline (GSK), 2015)
Active and inactive are the calls of the source. No rule for the calls is given here.

System: L. donovani-infected THP-1 macrophages, intracellular amastigote imaging
Experiment: antileishmanial activity in infected THP-1 macrophages – imaging, THP-1 host macrophages, host toxicity (AID 1159564)
[1] = measured here: THP-1 host cell toxicity
[2] = measured here: amastigotes per macrophage

| Compound | IC50 | IC50 [1] | IC50 [2] |
| --- | --- | --- | --- |
| CCCCn1nnnc1CSc1nc(C)cc(C)c1C#N | 4 µM | > 50 µM | 3.2 µM |
| Cn1cncc1CN1CCC2(CC1)COC(Cc1ccccc1)C2 (stereo not drawn) | > 50 µM (inactive) | > 50 µM | – |
| Cc1cccc(N2CCCN(Cc3c[nH]c4ccccc34)CC2)n1 | 10 µM | 10 µM | 10 µM |
| COc1cc(OC)cc(C(NS(=O)(=O)c2ccc(Cl)c(C(F)(F)F)c2)c2nccn2C)c1 (stereo not drawn) | 6.3 µM | > 50 µM | 5 µM |
| CCOc1ccccc1C(=O)Nc1nnc(-c2ccc3c(c2)OCO3)s1 | 0.5 µM | > 50 µM | 0.32 µM |
| CCN(CC)S(=O)(=O)c1ccc(Cn2nc(C(=O)Nc3ccncn3)c3ccccc32)cc1 | > 50 µM (inactive) | > 50 µM | > 50 µM |
| O=c1cc(NCCCNCc2cc(C(F)(F)F)cs2)[nH]c2ccccc12 | 40 µM | 20 µM | 25 µM |
| C=CCn1nc([N+](=O)[O-])nc1Oc1ccc(Cl)cc1Cl | > 50 µM (inactive) | 40 µM | 40 µM |
| COc1cccc2sc(CN(C)C(=O)C3CNCCN3c3ccc(F)cc3)c(C)c12 (stereo not drawn) | 6.3 µM | 13 µM | 4 µM |
| Cc1nn(-c2nc3ccccc3s2)c2c1C(c1ccc(OCC(N)=O)cc1)SCC(=O)N2 (stereo not drawn) | > 50 µM (inactive) | > 50 µM | > 50 µM |
| NC(=O)c1cc(F)ccc1Nc1nc(NC2CCC(O)CC2)ncc1Cl (stereo not drawn) | 1.3 µM | 0.63 µM | 0.79 µM |
| O=C(Nc1nc(-c2ccccn2)cs1)N1C[C@H]2C[C@@]2(c2ccccc2)C1 | 0.5 µM | 7.9 µM | 0.4 µM |
| CC(C)N(C(=O)CN1C(=O)C(N)C(=O)N(c2ccccc2)c2ccccc21)c1ccccc1 (stereo not drawn) | > 50 µM (inactive) | > 50 µM | > 50 µM |
| COc1ccc(NS(=O)(=O)c2cccc(NC(=O)c3cc(F)cc(F)c3)c2)cc1 | > 50 µM (inactive) | > 50 µM | 20 µM |
| Cc1cccc(Nc2nc(-c3ccccn3)cs2)n1 | 3.2 µM | > 50 µM | 2 µM |
| COc1ccc(Nc2nc(NC3CCC(O)CC3)ncc2Br)c(C(N)=O)c1 (stereo not drawn) | 1 µM | 0.4 µM | 0.63 µM |
| O=C(Nc1ccc(C(F)(F)F)cc1)NC1(C(=O)NCc2ccco2)CCCCC1 | > 50 µM (inactive) | 32 µM | > 50 µM |
| N#Cc1ccc(S(=O)(=O)N2CCC3(CCN(c4ccccc4)C3=O)CC2)cc1 | > 50 µM (inactive) | > 50 µM | > 50 µM |
| CC(=O)Nc1ccc(-c2csc(NC(=O)c3ccc([N+](=O)[O-])s3)n2)cc1 | 1 µM | 13 µM | 0.79 µM |
| Cc1ccc(-c2csc(NC(=O)C=Cc3ccc(S(=O)(=O)N4CCOCC4)cc3)n2)o1 | 5 µM | > 50 µM | 0.79 µM |
| CCOc1ccc(CN(C)Cc2nc(N)nc(Nc3ccc(C)cc3)n2)cc1 | 4 µM | 40 µM | 3.2 µM |
| N#Cc1c(Oc2cccc(Cl)c2)cccc1[N+](=O)[O-] | 10 µM | > 50 µM | 7.9 µM |
| CN(C)CCOc1ccc(N2CCN(S(=O)(=O)c3ccc(Cl)cc3)CC2)cc1 | 32 µM | > 50 µM | 32 µM |

| Compound | IC50 | IC50 [1] | IC50 [2] |
| --- | --- | --- | --- |
| CCCN1CCN(Cc2ccc(S(=O)(=O)Nc3cccc(C)c3)cc2)CC1 | > 50 µM (inactive) | > 50 µM | > 50 µM |
| CCn1c(NC(=O)Cc2ccc(F)cc2)nc2ccccc21 | 10 µM | > 50 µM | 6.3 µM |
| CC1(C)CCC(=Cc2ccc(Cl)cc2)CC1(O)Cn1ccnc1 (stereo not drawn) | 7.9 µM | 13 µM | 2 µM |
| Cc1c(C#N)c([N+](=O)[O-])nn1Cc1cccc(Cl)c1Cl | > 50 µM (inactive) | 16 µM | 16 µM |
| CNc1cc(Cn2c(C(=O)c3cc(C)cc(Cl)c3)c(C(C)C)c(=O)[nH]c2=O)ccn1 | 20 µM | > 50 µM | 13 µM |
| CNC(=O)C1Cc2ccccc2N1C(=O)Cc1ccc(F)cc1 (stereo not drawn) | > 50 µM (inactive) | > 50 µM | > 50 µM |
| O=C(NCCNc1noc(-c2ccc([N+](=O)[O-])cc2)n1)c1ccc(Cl)cc1 | > 50 µM (inactive) | 16 µM | > 50 µM |
| O=c1ccc2ccc(F)c3c2n1C[C@H]3CN1CCC(NCc2cc3ccccc3o2)CC1 | 20 µM | 32 µM | 13 µM |
| CC(C)c1cc(Nc2cc(Cc3ccccc3)nc(NC3CCC(O)CC3)n2)n[nH]1 (stereo not drawn) | 0.063 µM | 0.02 µM | 0.04 µM |
| Cc1occc1C(=O)Nc1ccccc1C(=O)Nc1nccs1 | > 50 µM (inactive) | > 50 µM | > 50 µM |
| COc1ccc(C2CC(c3ccc(NS(C)(=O)=O)cc3)=NN2C(=O)c2cccs2)cc1OC (stereo not drawn) | 5 µM | > 50 µM | 4 µM |
| COc1ccc(NS(=O)(=O)c2ccc(S(=O)(=O)N(C)C3CCCCC3)cc2)c2ncccc12 | 0.32 µM | > 50 µM | 0.16 µM |
| Cc1nc2c(-c3cccs3)c(C)nn2c(NCCO)c1C | > 50 µM (inactive) | > 50 µM | > 50 µM |
| CN(Cc1nc2c(C(=O)N3CCN(Cc4ccccc4)CC3)cccc2[nH]1)C1CCCc2cccnc21 (stereo not drawn) | 1.3 µM | 10 µM | 0.79 µM |
| Cc1ccc(Nc2nc(-c3ccccn3)cc(N3CCCC(O)C3)n2)cc1 (stereo not drawn) | 0.79 µM | 25 µM | 0.5 µM |
| CCc1ccc2nc(NC(=O)c3cc(N4CCOCC4)ccn3)sc2c1 | 1.3 µM | 10 µM | 0.79 µM |
| COc1ccc(C(=O)N2CCC(Nc3cccnc3)C2)c(OC)n1 (stereo not drawn) | > 50 µM (inactive) | > 50 µM | > 50 µM |
| Cc1ccc(S(=O)(=O)Cn2nnnc2C(c2cccnc2)N2CCN(c3ccccc3)CC2)cc1 (stereo not drawn) | > 50 µM (inactive) | > 50 µM | > 50 µM |
| CCCCNc1nccc(-c2c(-c3ccc(F)cc3)nn3c(N4CCOCC4)cccc23)n1 | 6.3 µM | 13 µM | > 50 µM |
| CCCc1cc(C(=O)Nc2ncc(-c3cccc(Br)c3)n2C)n[nH]1 | 5 µM | 32 µM | 4 µM |
| O=C(CC1(O)C(=O)N(Cc2ccccc2)c2ccc(Br)cc21)c1cccnc1 (stereo not drawn) | > 50 µM (inactive) | 40 µM | 32 µM |
| CCOC(=O)c1noc(N)c1-c1ccccc1 | > 50 µM (inactive) | > 50 µM | > 50 µM |
| CCN(Cc1nc2ccc(C(=O)N3CCN(c4ncccn4)CC3)cc2[nH]1)C1CCCc2cccnc21 (stereo not drawn) | 4 µM | 20 µM | 1.6 µM |

| Compound | IC50 | IC50 [1] | IC50 [2] |
| --- | --- | --- | --- |
| O=[N+]([O-])c1ccc(-c2nnn(-c3ccc(Cl)cc3)n2)o1 | > 50 µM (inactive) | > 50 µM | > 50 µM |
| CCN(Cc1cccs1)C(=O)CSc1nnc(-c2ccc3c(c2)OCO3)o1 | 2 µM | > 50 µM | 2 µM |
| CCN(CC)c1ncc(C(=O)c2ccc([N+](=O)[O-])o2)s1 | 10 µM | 6.3 µM | 10 µM |
| COc1cnc2ccc(=O)n(CCN3CCC(NC/C=C/c4cc(F)ccc4F)CC3)c2c1 | 5 µM | 40 µM | 2 µM |
| COc1ccc(S(=O)(=O)NCc2ccc(-c3ccc(CN(C)CCO)cc3)cc2)cc1 | 16 µM | 20 µM | 20 µM |
| COc1ccc(NC(=O)c2ccc(NC(=O)CN(c3ccccc3C)S(C)(=O)=O)cc2)cc1 | > 50 µM (inactive) | > 50 µM | 7.9 µM |
| CCc1ccccc1[C@@H](C)NC(=O)c1cnc2c(cnn2CC)c1NC1CCN(C(N)=O)CC1 | > 50 µM (inactive) | > 50 µM | > 50 µM |
| COc1cccc(C(=O)[C@H]2C[C@@H]2CN(Cc2cccnc2)Cc2cccnc2)c1 | > 50 µM (inactive) | 40 µM | 7.9 µM |
| Cc1ccc(NC(C)C(=O)Nc2ccc(C#N)cc2)cc1S(=O)(=O)N1CCCCC1 (stereo not drawn) | 10 µM | 50 µM | 5 µM |
| CS(=O)(=O)c1ccc(Nc2nccc(Nc3n[nH]c4ccc(F)cc34)n2)c(F)c1 | 13 µM | 16 µM | 10 µM |
| CC(c1ccc2c(c1)CCCC2)N(C)c1ncc2c(N)nc(N)nc2n1 (stereo not drawn) | 2 µM | 25 µM | 0.79 µM |
| O=[N+]([O-])c1cccc(Nc2cncc(-c3ccccc3CO)c2)c1 | > 50 µM (inactive) | > 50 µM | > 50 µM |
| COCc1cc(Nc2ccc(Cl)cc2)nc(-c2ccccn2)n1 | 1.3 µM | 20 µM | 0.79 µM |
| Cc1nc(-c2ccncc2)ncc1C(C)NC(=O)c1ccc(Cl)s1 (stereo not drawn) | > 50 µM (inactive) | > 50 µM | > 50 µM |
| CC(C)Oc1cccc(N2CCC(C(=O)N3CCCN(C(C)C)CC3)CC2)c1 | > 50 µM (inactive) | > 50 µM | > 50 µM |
| CCOc1ccc(CC(=O)N2c3ccccc3CC2C(=O)NC)cc1 (stereo not drawn) | > 50 µM (inactive) | > 50 µM | > 50 µM |
| O=C(CN(Cc1ccccn1)Cc1ccccn1)NC1Cc2ccccc2C1 | 5 µM | > 79 µM | 5 µM |
| CC(C)Oc1ccc(C(=O)Nc2ccc(N3CCOCC3)c(Cl)c2)cc1 | > 50 µM (inactive) | > 50 µM | 3.2 µM |
| COc1ccc2ncc(=O)n(CCN3CCC(NCc4ccc(-c5cccs5)cc4)CC3)c2n1 | 3.2 µM | 10 µM | 1.3 µM |
| Cc1c(C(C)NC(=O)Nc2cccc(Cl)c2)sc2ncnn12 (stereo not drawn) | > 50 µM (inactive) | > 50 µM | 2 µM |
| Cc1nn(C)c(Cl)c1CN(Cc1cccnc1)Cc1ccsc1 | > 50 µM (inactive) | > 50 µM | 3.2 µM |
| Cc1cc(N(C)C)nc2ccc(Cc3cnc(N)nc3N)cc12 | 32 µM | 40 µM | 40 µM |
